PMC12191924, “A new naphthalene-based fluorogenic substrate for cytochrome P450 4A11” (Biochemical Journal, 2025)
Where two headings read alike, the source gives them in different places.

Assays:
[1] = MONACRA O-demethylation by monkey liver microsomes, FA-AAA formaldehyde assay; assay type: in vitro ADME, cynomolgus monkey (Macaca fascicularis); details: cynomolgus monkey, liver microsomes, MLM, FA assay, 20-min incubation at 30°C
Source text: (§1) To probe if MONACRA can be metabolized to hydroxy-naphthyl acrylic acid (HONACRA) by liver microsomes, we utilized our high-throughput fluorimetric assay of formed formaldehyde with acetoacetanylide (FA-AAA assay, [34]). In our initial experiments, we used cynomolgus monkey (Macaca fascicularis) liver microsomes (MLM).
(§2) Figure 3: O-demethylation of 3-(6-methoxynaphthalen-2-yl)acrylic acid (MONACRA) by monkey liver microsomes (MLM). […] Panel B exemplifies the substrate saturation profile of MONACRA demethylation by MLM (0.98 mg/ml) determined by formed formaldehyde with acetoacetanylide (FA-AAA) assay with 20-min incubation at 30°C. The datasets shown in the figures represent averages of the results of two individual experiments, and the error bars indicate the standard deviations.
(§3) MONACRA demethylation was monitored by quantifying the amount of formed formaldehyde using a high-throughput fluorimetric assay based on the Hantzsch reaction with acetoacetanilide. The plates were prepared as described above. The assays were executed as described earlier, except for monitoring the formation of DPDL by the spectra of its emission with excitation at 395 nm instead of the spectra of excitation, as it was described earlier. This modification of the assay procedure was done because of an ample overlap of the spectra of excitation of MONACRA and HONACRA with that of DPDL.

[2] = system: monkey liver microsomes (MLM); assay: as above; assay type: in vitro ADME, cynomolgus monkey (Macaca fascicularis); details: sum of two Michaelis–Menten components
Source text: as §1, §2, §3

[3] = target: T1, pooled human liver microsome (HLM) preparations (Homo sapiens, UniProt Q02928); assay: Inhibition of MONACRA demethylation in pooled HLM preparations; assay type: biochemical; details: all studied HLM samples; from inhibitory analysis with epalrestat
T1 sequence (Q02928 5-519): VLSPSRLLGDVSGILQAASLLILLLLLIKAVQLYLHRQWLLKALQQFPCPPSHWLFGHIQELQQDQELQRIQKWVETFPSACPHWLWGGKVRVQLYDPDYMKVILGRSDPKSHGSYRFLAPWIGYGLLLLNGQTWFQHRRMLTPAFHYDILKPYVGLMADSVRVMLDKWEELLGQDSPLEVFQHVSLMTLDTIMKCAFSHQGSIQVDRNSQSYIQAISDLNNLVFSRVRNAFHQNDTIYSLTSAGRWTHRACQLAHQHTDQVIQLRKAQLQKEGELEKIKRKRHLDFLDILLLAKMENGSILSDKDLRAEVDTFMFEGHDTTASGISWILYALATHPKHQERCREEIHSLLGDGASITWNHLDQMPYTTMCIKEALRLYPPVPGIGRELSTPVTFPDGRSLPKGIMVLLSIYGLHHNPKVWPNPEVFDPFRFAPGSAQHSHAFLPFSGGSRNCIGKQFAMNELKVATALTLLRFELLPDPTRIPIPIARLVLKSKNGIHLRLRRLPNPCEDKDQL
Source text: To probe the role of CYP4A11 and CYP1A2 in MONACRA metabolism by HLM, we employed inhibitory analysis with the use of epalrestat as a specific inhibitor of CYP4A11 [22] and fluvoxamine as a CYP1A2 inhibitor [37]. We explored the effect of the inhibitors on the activity of recombinant CYP1A2 and CYP4A11, as well as the activity of six different preparations of HLM (preparation X347 was not available at the time of the study).
Figure 12: Effect of epalrestat (A) and fluvoxamine (B) on 3-(6-methoxynaphthalen-2-yl)acrylic acid (MONACRA) demethylation by recombinant CYP1A2 (black) and CYP4A11 (red) and three pooled human liver microsome (HLM) preparations: X263 (green), DNJ (blue), and WGP (brown). Solid lines represent the approximation of the datasets by eqn 1 (in the instances of pure inhibition) or a combination of two hyperbolic equations (in the cases of activation or combined inhibition and activation). All experiments were carried out at 150 µM MONACRA concentration. The datasets shown in the graphs represent the averages of the results of four (fluvoxamine) or two (epalrestat) individual experiments.
This study used preparations of pooled HLMs from 50, 150, or 200 donors (mixed gender). The preparations CDN, DNJ, and WGP were INVITROCYP 150-Donor Human Liver Microsomes obtained from BioIVT Corporation (Westbury, NY). Lot EGW is INVITROCYP M-Class 50-Donor HLM procured from the same company. Lots 1,910,096 and 1,210,347 were XTreme 200 Mixed Gender HLM (200 donors) purchased from XenoTech LLC (Kansas City, KS), currently a part of BioIVT. Lot 2,110,263 corresponds to mixed gender HLM from 50 donors from the same company. These lots are referred to herein as X096, X347, and X263, respectively. The supplier of the HLM preparations used in our studies, BioIVT Corporation, has declared to adhere to the regulations of the Department of Health and Human Services for the protection of human subjects (45 CFR §46.116 and §46.117) and Good Clinical Practice, (ICH E6) in obtaining the samples of human tissues used for producing the preparations of human subcellular fractions available from these companies.
Inhibition of MONACRA metabolism by epalrestat and fluvoxamine was studied using the high-throughput assay described above. The substrate concentration was kept constant at 150 µM. Each column of the well plate comprised eight wells with different concentrations of inhibitor complemented with two wells with no inhibitor added (100% activity samples) and two wells with no inhibitor and no NADPH added (‘blank’ samples). […] The fractional inhibition at each inhibitor concentration was determined from the ratio of the reaction rate in the presence of an inhibitor to the rate observed at no inhibitor added. The resulting dependence of the fractional inhibition on the inhibitor concentration was fitted to a four-parameter logistic equation (Hill equation):
(1) FI=v0−vi/v0=Amax[I]^N/IC50+[I]^N
In this equation, F I and vi are the fractional inhibition and the reaction velocity observed at inhibitor concentration [I], v0 is the reaction rate at no inhibitor added, and A max is the maximal amplitude of inhibition. IC 50 is the concentration of inhibitor at which the inhibition reaches 50% of its maximal amplitude (A max), and N is the Hill coefficient.

## COc1ccc2cc(C=CC(=O)O)ccc2c1 [MONACRA, 3-(6-methoxynaphthalen-2-yl)acrylic acid]
[1]; read-out: KM, first of two Michaelis–Menten components
  Km at 20 min: 28.4 µM
[1]; read-out: KM, second of two Michaelis–Menten components
  Km at 20 min: 260 µM
[2]
  total Vmax: 17.2 mol FA per mol of NADPH-cytochrome P450 reductase (CPR) per minute
[3]
  share of MONACRA demethylation for which CYP4A11 is responsible: > 93%
